# Test results: patent US20230167064A1, “TREATMENTS OF INFLAMMATORY BOWEL DISEASE” (Aqilion AB, priority 2020, published 2023)
# Entries after “also recorded” stand apart in the source; their conditions may differ.
# How the values were obtained:
# Crohn's Disease = details: reported in D'Haens et al. 2015 and WO 2011/014255; cited from earlier work
# [1] = In vivo pharmacokinetic study in rats; design: species or system Sprague Dawley rats; details: 1 mg/kg oral, rat plasma
# Method: An in vivo pharmacokinetic study in rats was performed to determine if Example compound 2 can be absorbed and detected systemically after oral dosing. 4 male Sprague Dawley rats, approximately 225 g-250 g at dosing were dosed with 1 mg/kg of Example compound 2 formulated as a 0.1 mg/mL suspension with sodium carboxymethyl cellulose (1%, w/v). Blood samples were taken at 15 min, 30 min, 1 h, 2 h, 4 h, 6 h, 8 h and 24 h post dose At each blood sampling approximately 250 μL blood was sampled in K3EDTA vials and approximately 100 μL plasma was also prepared. The plasma samples were prepared by mixing 50 μL plasma with 250 μL of internal standard solution (20 ng/mL of phenacetin in ACN with 1% formic acid), mixed and centrifuged (20 min, 4000 rpm). Plasma samples were transferred to Waters Ostro 96-well plate and drawn through the plate by applying 6-8 psi positive pressure for 10 min. 100 μL of supernatant was further diluted with 50 μL UP water and sample was submitted to analysis. The standard and QC samples were prepared into blank rat colon homogenate and blank rat plasma. Standards were spiked into concentrations 0.1-10000 ng/mL of the analytes, QC samples into 3, 30, 300 and 3000 ng/mL, and were otherwise treated as samples.
# [2] = test system: aryl hydrocarbon receptor (AhR); assay: Activation of AhR in colon of mice after oral dosing (qPCR of CYP1A1); assay type: in vivo, C57Bl/6 mice; details: for Colon CYP1A1 (fold change over untreated) Mean / Liver CYP1A1 (fold change over untreated) Mean: day 14; for Colon CYP1A1 (fold change over untreated) Mean: qPCR normalized to GAPDH & ACTB
# Method: The potential of Example compound 2 to activate the aryl hydrocarbon receptor (AhR) in the colon following oral administration was evaluated in a wild-type (WT) mice.
# Species/Strain or Breed: C57Bl/6
# On study day 0, animals were weighed and evenly distributed into treatment groups based on body weight. On study day 14, animals were asphyxiated via CO2 inhalation followed by cervical dislocation. The entire colon was removed, collected and prepared for qPCR analysis of CYP1A1 (Normalized to GAPDH & ACTB).
# The Example compound 2 was formulated as a 0.1 mg/ml, 0.01 mg/ml or 0.001 mg/ml suspension with sodium carboxymethyl cellulose (1%, w/v).
# [3] = test system: CD4+ adoptive transfer induced inflammatory bowel disease in mice; assay: CD4+ adoptive transfer induced inflammatory bowel disease in mice; assay type: in vivo, Fox Chase C.B-17 SCID mice; details: 1 mg/kg daily, day 21 to 49; for inhibition of inflammation/edema associated with inflammatory bowel disease (anti-inflammatory effect in colon): Potassium Salt
# Method: The efficacy of Example compound 2 in inhibiting inflammation/edema associated with inflammatory bowel disease was evaluated in a CD4+ adoptive transfer induced inflammatory bowel disease in mice.
# Species/Strain or Breed: Fox Chase C.B-17 SCID & Balb/C
# On study day −1, SCID mice were weighed and evenly distributed into treatment groups based on body weight.
# On study day 0, Balb/C mice were terminated, and spleens obtained for CD4^+CD45RB^high cell isolation (Using SCID IBD Cell Separation Protocol). After cells were sorted and obtained, each animal in the treatment groups received an IP injection of CD4^+CD45RB^high cells at a minimum 4×10^5 cells (200 μl/mouse injections). A naïve group of mice was followed through the experiment without receiving the injection of cells. The naïve group comprised 5 animals.
# On study day 21, treatment with Example compound 2 (1 mg/kg, daily day 21 to 49) was initiated. The compound was formulated as a 0.1 mg/mL suspension with sodium carboxymethyl cellulose (1%, w/v). Mice received either Example compound 2 or vehicle. Each of those groups comprised 10 animals.
# On study day 49, animals were anesthetized with Isoflurane and bled to exsanguination followed by cervical dislocation. The entire colon was removed, measured, and weighed. The colon was analysed for its level of interferon-γ and IL-22. The inflammation in the colons was also scored by visual and histopathological assessments.
# [4] = test system: DSS model of Ulcerative Colitis using C57Bl/6 mice; assay: DSS model of Ulcerative Colitis in mice; assay type: in vivo; details: 1 mg/kg daily oral, vs vehicle (and anti-TNFα antibody); for colitis clinical score: suspension in CMC-Na 2%, Day 9; for colon length: Day 10, experiment termination
# Method: Ulcerative Colitis was modelled in C57Bl/6 mice by administering Dextran Sulphate Sodium (DSS) in drinking water (1.5% w/v) for 5 days. Mice were monitored daily for weight loss and clinical symptoms of disease for 10 days starting at the beginning of DSS administration.
# The length and weight of the colon were also assessed.
# Compared to naïve animals, animals given DSS water developed clinical signs of disease including weight loss and diarrhoea as well as gross pathological signs of disease on experiment termination. […] Shortened length and increased weight:length ratio indicates edema associated with ulcerative colitis.
compound,measurement,setting,value
CCN(C(=O)c1c(O)c2c(Cl)cccc2n(C)c1=O)c1ccccc1 [laquinimod],benefit in treatment of Crohn's Disease,Crohn's Disease,beneficial for the treatment of Crohn's Disease
"Cn1c(=O)c(C(=O)Nc2ccccc2)c(O)c2c(Cl)cccc21.[K] [Example compound 2, 5-chloro-4-hydroxy-1-methyl-2-oxo-N-phenyl-quinoline-3-carboxamide Potassium Salt]",clearance from plasma,[1],rapidly cleared
same,level in the plasma after oral dosing,[1]; 15 min to 24 h post dose,detected in the plasma
same,Colon CYP1A1 (fold change over untreated) Mean,[2]; 0.01 mg/kg PO QD D0-13,1.03 fold change over untreated
same,Liver CYP1A1 (fold change over untreated) Mean,[2]; 0.01 mg/kg PO QD D0-13,1.08 fold change over untreated
same,Colon CYP1A1 (fold change over untreated) Mean,[2]; 0.1 mg/kg PO QD D0-13,7.42 fold change over untreated
same,Liver CYP1A1 (fold change over untreated) Mean,[2]; 0.1 mg/kg PO QD D0-13,2.81 fold change over untreated
same,Colon CYP1A1 (fold change over untreated) Mean,[2]; 1.0 mg/kg PO QD D0-13,8.34 fold change over untreated
same,Liver CYP1A1 (fold change over untreated) Mean,[2]; 1.0 mg/kg PO QD D0-13,3.44 fold change over untreated
same,CYP1A1 mRNA expression compared to untreated animals (AhR activation),"[2]; 1.0 and 0.1 mg/kg oral, WT mice",significant increase in CYP1A1 mRNA expression
same,"AhR activating effect, colon versus liver CYP1A1 increase","[2]; oral, increase in liver CYP1A1 lower than in colon",local AhR activating effect
same,inhibition of inflammation/edema associated with inflammatory bowel disease (anti-inflammatory effect in colon),[3],local anti-inflammatory effect in the colon
same,colon level of inflammatory markers (interferon-γ and IL-22),"[3]; colon at day 49, vs vehicle",lower levels of inflammatory markers
same,inflammation in the colons scored by visual and histopathological assessments,"[3]; day 49, vs vehicle",fewer signs of inflammation
same,inhibition of inflammation/edema associated with inflammatory bowel disease (anti-inflammatory effect in colon),[3]; listed as potassium salt of DELAQ,effective in inhibiting inflammation/edema
same,body weight (weight loss),[3]; vs vehicle,less weight loss
"Cn1c(=O)c(C(=O)Nc2ccccc2)c(O)c2c(Cl)cccc21 [Example compound 1, 5-chloro-4-hydroxy-1-methyl-2-oxo-N-phenyl-quinoline-3-carboxamide]",colitis clinical score,[4],significant reduction in colitis clinical score; also recorded: lower colitis score
same,colitis clinical score,[4]; listed as DELAQ,protective effect against the development of the clinical symptoms of Ulcerative Colitis
same,colon length,[4],significant increase in colon length; also recorded: greater colon length
same,colon length,[4]; listed as DELAQ,effective at reducing colon shortening
same,"body weight change (% change from day 1 of experiment), weight loss",[4],reduced weight loss
